Results: patent publication US12448389B2, “BRM targeting compounds and associated methods of use” (Prelude Therapeutics Incorporated, priority 2020, dated 2025)

Columns and labels:
SMARCA2-HiBiT = molecular target: T1, SMARCA2-HiBiT (Homo sapiens, UniProt P51531); assay: SMARCA2 HiBiT degradation assay in HeLa cells; type: cell-based; details: 18 hours incubation; for DC50: read-out: HeLa_HiBit-SM2 DC50; for Dmax: HeLa, read-out: HeLa-HiBit-SM2 Dmax (%)
T1 construct: SMARCA2-HiBiT knock-in Hela monoclonal cell (CS302366); host or cells: HeLa monoclonal knock-in line (CRISPR HiBiT knock-in at the endogenous locus, heterozygous)
T1 sequence (P51531 whole entry): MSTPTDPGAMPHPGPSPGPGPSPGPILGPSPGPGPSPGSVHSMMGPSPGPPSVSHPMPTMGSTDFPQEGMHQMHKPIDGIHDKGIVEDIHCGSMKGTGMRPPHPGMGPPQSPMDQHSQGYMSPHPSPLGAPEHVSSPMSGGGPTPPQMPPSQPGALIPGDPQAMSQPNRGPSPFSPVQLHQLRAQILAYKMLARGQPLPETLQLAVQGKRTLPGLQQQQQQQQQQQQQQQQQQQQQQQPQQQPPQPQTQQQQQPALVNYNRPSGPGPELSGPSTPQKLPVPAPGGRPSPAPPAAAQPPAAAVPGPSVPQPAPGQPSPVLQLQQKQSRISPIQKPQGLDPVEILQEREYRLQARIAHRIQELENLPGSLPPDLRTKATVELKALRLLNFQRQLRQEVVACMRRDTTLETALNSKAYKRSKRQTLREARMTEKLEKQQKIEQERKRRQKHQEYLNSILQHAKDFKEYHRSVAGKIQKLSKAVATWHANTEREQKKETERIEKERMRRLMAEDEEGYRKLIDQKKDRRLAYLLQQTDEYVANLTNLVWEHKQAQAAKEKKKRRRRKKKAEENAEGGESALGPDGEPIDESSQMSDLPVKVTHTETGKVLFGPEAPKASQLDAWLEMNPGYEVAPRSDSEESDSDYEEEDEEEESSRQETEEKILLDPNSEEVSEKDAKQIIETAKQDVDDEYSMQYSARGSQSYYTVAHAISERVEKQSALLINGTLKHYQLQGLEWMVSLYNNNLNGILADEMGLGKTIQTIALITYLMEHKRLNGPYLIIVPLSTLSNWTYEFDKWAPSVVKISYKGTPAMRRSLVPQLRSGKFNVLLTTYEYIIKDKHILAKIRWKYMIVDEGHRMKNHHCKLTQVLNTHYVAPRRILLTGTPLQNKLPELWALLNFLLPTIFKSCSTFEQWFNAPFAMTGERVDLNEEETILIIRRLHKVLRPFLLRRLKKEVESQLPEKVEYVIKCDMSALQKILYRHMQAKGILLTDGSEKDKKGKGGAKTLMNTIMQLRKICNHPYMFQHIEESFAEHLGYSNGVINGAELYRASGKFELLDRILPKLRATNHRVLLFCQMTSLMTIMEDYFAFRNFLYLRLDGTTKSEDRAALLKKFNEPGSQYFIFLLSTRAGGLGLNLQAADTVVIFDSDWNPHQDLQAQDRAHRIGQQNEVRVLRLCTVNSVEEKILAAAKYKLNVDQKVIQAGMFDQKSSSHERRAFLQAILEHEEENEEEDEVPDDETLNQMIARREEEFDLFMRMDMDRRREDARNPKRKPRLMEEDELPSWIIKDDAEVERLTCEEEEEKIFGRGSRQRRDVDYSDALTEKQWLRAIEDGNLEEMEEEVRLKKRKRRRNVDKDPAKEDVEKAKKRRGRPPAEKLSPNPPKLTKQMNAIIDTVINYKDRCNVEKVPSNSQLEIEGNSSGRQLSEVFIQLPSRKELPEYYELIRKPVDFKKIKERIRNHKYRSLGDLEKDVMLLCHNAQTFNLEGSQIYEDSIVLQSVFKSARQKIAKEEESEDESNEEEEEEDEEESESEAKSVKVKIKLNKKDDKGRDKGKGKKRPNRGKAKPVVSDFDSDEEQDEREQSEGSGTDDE
Experimental: (§1) HiBiT peptide knock-in of SMARCA2 in LgBiT expressing HEK293T cells was performed by CRISPR-mediated tagging system as described Promega. The homozygous HiBiT knock-in on c-terminus SMARCA2 was confirmed by sanger sequence. SMARCA2-HiBiT knock-in Hela monoclonal cell (CS302366) and SMARCA4-HiBiT knock-in Hela monoclonal cell (CS3023226) were purchased from Promega. The heterozygous HiBiT-knock-in was confirmed by sanger sequence in both SMARCA2-HiBiT and SMARCA4-HiBiT monoclonal cells.
(§2) SMARCA2 HiBiT and SMARCA4 HiBiT Degradation Assay in HeLa Cells
(§3) Dispense 10 ul aliquot of prepared Hela-SMARCA2-HiBiT or Hela-SMARCA4-HiBiT cells (1:1 ratio of cells:Trypan Blue (#1450013, Bio-Rad)) onto cell counting slide (#145-0011, Bio-Rad) and obtain cell density and cell viability using cell counter (TC20, Bio-Rad). Remove appropriate volume of resuspended cells from culture flask to accommodate 2500 cells/well @20 μL/well. Transfer Hela-HiBiT cells to 50 mL conical (#430290, Corning). Spin down at 1000 rpm for 5 min using tabletop centrifuge (SPINCHRON 15, Beckman). Discard supernatant and resuspend cell pellet in modified EMEM (#30-2003, ATCC) cell culture media containing 10% FBS (F2422-500ML, Sigma), and 1×Penicillin/Streptomycin (200 g/L) (30-002-CI, Corning) to a cell density of 125,000 cells/mL. Dispense 20 μL of resuspended Hela-HiBit cells per well in 384-well TC treated plate (#12-565-343, Thermo Scientific) using standard cassette (#50950372, Thermo Scientific) on Multidrop Combi (#5840310, Thermo Scientific) inside laminar flow cabinet. Dispense test compounds onto plates using digital liquid dispenser (D300E, Tecan). Incubate plates in humidified tissue culture incubator @37° C. for 18 hours. Add 20 μL of prepared Nano-Glo® HiBiT Lytic detection buffer (N3050, Promega) to each well of 384-well plate using small tube cassette (#24073295, Thermo Scientific) on Multidrop Combi, incubate @RT for 30-60 min. Read plates on microplate reader (Envision 2105, PerkinElmer) using 384 well Ultra-Sensitive luminescence mode. Raw data files and compound information reports are swept into centralized data lake and deconvoluted using automated scripts designed by TetraScience, Inc. Data analysis, curve-fitting and reporting done in Dotmatics Informatics Suite using Screening Ultra module.

SMARCA4-HiBiT = molecular target: T2, SMARCA4-HiBiT (Homo sapiens, UniProt P51532); assay: SMARCA4 HiBiT degradation assay in HeLa cells; type: cell-based; details: 18 hours incubation; for DC50: read-out: HeLa-HiBit-SM4 DC50; for Dmax: HeLa, read-out: HeLa-HiBit-SM4 Dmax (%)
T2 construct: SMARCA4-HiBiT knock-in Hela monoclonal cell (CS3023226); host or cells: HeLa monoclonal knock-in line (CRISPR HiBiT knock-in at the endogenous locus, heterozygous)
T2 sequence (P51532 whole entry): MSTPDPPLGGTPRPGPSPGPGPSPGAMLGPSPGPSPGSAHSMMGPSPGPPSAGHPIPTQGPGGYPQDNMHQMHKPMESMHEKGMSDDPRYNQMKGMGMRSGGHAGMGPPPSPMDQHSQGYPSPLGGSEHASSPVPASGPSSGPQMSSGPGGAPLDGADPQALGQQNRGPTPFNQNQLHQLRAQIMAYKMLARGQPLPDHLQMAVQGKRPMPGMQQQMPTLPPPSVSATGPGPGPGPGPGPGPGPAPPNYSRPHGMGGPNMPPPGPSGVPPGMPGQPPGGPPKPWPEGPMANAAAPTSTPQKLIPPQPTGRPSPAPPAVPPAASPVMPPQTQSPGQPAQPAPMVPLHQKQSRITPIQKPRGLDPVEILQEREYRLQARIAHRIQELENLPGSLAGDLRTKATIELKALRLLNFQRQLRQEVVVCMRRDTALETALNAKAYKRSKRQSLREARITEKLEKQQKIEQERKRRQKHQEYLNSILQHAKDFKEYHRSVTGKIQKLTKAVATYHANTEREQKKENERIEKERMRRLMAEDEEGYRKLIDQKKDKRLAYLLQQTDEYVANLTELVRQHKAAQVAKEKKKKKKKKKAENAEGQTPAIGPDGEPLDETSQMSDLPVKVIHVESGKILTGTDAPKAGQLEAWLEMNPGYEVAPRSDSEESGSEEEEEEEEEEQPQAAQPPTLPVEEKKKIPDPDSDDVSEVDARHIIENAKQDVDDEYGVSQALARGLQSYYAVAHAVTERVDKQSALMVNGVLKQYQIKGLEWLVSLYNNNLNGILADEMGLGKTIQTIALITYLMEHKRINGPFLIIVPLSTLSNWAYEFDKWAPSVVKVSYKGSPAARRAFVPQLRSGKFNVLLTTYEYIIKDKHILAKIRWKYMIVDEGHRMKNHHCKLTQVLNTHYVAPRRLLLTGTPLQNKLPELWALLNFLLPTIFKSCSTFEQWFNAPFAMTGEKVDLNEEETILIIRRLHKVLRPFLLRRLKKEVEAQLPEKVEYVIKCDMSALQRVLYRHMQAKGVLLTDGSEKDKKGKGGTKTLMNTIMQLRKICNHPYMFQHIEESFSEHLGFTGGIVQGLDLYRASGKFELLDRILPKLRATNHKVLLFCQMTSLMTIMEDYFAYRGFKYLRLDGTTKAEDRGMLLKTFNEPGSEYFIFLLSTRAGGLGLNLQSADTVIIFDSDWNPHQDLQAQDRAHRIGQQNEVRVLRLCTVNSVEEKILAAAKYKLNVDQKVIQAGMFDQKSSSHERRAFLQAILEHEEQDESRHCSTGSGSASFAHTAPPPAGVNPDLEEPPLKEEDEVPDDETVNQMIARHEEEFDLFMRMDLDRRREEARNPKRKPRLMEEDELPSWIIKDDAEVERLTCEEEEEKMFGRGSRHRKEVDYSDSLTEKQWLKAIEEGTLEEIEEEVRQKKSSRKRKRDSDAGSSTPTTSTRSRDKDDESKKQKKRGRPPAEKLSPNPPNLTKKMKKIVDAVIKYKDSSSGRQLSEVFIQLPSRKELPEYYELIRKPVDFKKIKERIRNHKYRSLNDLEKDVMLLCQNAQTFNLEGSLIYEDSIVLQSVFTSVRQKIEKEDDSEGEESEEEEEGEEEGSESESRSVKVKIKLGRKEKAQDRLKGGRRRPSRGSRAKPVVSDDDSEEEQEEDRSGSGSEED
Experimental: as §1, §2, §3

| SMILES | DC50 (SMARCA2-HiBiT) [nM] | Dmax (SMARCA2-HiBiT) [%] | DC50 (SMARCA4-HiBiT) [nM] | Dmax (SMARCA4-HiBiT) [%] |
| --- | --- | --- | --- | --- |
| C[C@H]1CN2c3cc(-c4ccccc4O)nnc3NC[C@H]2CN1C[C@H]1[C@@H]2CN(CC3CCN(c4ccc5c(c4)C(=O)N(C4CCC(=O)NC4=O)C5)CC3)C[C@@H]21 (stereo partly drawn) [Example 54, 3-(6-(4-(((1R,5S,6r)-6-(((6aS,9S)-2-(2-hydroxyphenyl)-9-methyl-5,6,6a,7,9,10-hexahydro-8H-pyrazino[1′,2′:4,5]pyrazino[2,3-c]pyridazin-8-yl)methyl)-3-azabicyclo[3.1.0]hexan-3-yl)methyl)piperidin-1-yl)-1-oxoisoindolin-2-yl)piperidine-2,6-dione] | < 10 | 75 to 85 | 10 to 100 | 50 to 75 |
| O=C1CCC(N2Cc3ccc(N4CCC(CN5CCC(CN6CCN7c8cc(-c9ccccc9O)nnc8NC[C@H]7C6)CC5CO)CC4)cc3C2=O)C(=O)N1 (stereo partly drawn) [Example 235, 3-(6-(4-((2-(hydroxymethyl)-4-(((S)-2-(2-hydroxyphenyl)-5,6,6a,7,9,10-hexahydro-8H-pyrazino[1′,2′:4,5]pyrazino[2,3-c]pyridazin-8-yl)methyl)piperidin-1-yl)methyl)piperidin-1-yl)-1-oxoisoindolin-2-yl)piperidine-2,6-dione] | < 10 | > 85 | < 10 | > 85 |
| O=C1CCC(N2Cc3cc(C4CCN(CC5CCN(CCN6CCN7c8cc(-c9ccccc9O)nnc8NC[C@H]7C6)CC5)CC4)ccc3C2=O)C(=O)N1 (stereo partly drawn) [Example 213, 3-(5-(1-((1-(2-((S)-2-(2-hydroxyphenyl)-5,6,6a,7,9,10-hexahydro-8H-pyrazino[1′,2′:4,5]pyrazino[2,3-c]pyridazin-8-yl)ethyl)piperidin-4-yl)methyl)piperidin-4-yl)-1-oxoisoindolin-2-yl)piperidine-2,6-dione] | < 10 | > 85 | < 10 | > 85 |
| O=C1CCC(N2C(=O)c3ccc(N4CCC5(CC4)CC(CN4CCC(CN6CCN7c8cc(-c9ccccc9O)nnc8NC[C@H]7C6)CC4)C5)cc3C2=O)C(=O)N1 (stereo partly drawn) [Example 150, 2-(2,6-dioxopiperidin-3-yl)-5-(2-((4-(((S)-2-(2-hydroxyphenyl)-5,6,6a,7,9,10-hexahydro-8H-pyrazino[1′,2′:4,5]pyrazino[2,3-c]pyridazin-8-yl)methyl)piperidin-1-yl)methyl)-7-azaspiro[3.5]nonan-7-yl)isoindoline-1,3-dione] | < 10 | > 85 | < 10 | > 85 |
| O=C1CCC(N2C(=O)c3ccc(N4CC[C@H](CN5CCN(C(=O)N6CCN7c8cc(-c9ccccc9O)nnc8NC[C@H]7C6)CC5)[C@@H](F)C4)cc3C2=O)C(=O)N1 (stereo partly drawn) [Example 206, 2-(2,6-dioxopiperidin-3-yl)-5-[(3R,4R)-3-fluoro-4-[[4-[(10S)-4-(2-hydroxyphenyl)-1,5,6,8,12-pentazatricyclo [8.4.0.02,7]tetradeca-2(7),3,5-triene-12-carbonyl]piperazin-1-yl]methyl]piperidin-1-yl]isoindole-1,3-dione] | < 10 | > 85 | 10 to 100 | 50 to 75 |
| C[C@H]1CN2c3cc(-c4ccccc4O)nnc3NC[C@H]2CN1CC1CCN(CC2CCN(c3ccc4c(c3)C(=O)N(C3CCC(=O)NC3=O)C4=O)CC2)CC1 (stereo partly drawn) [Example 28, 2-(2,6-dioxopiperidin-3-yl)-5-(4-((4-(((6aS,9S)-2-(2-hydroxyphenyl)-9-methyl-5,6,6a,7,9,10-hexahydro-8H-pyrazino[1′,2′:4,5]pyrazino[2,3-c]pyridazin-8-yl)methyl)piperidin-1-yl)methyl)piperidin-1-yl) isoindoline-1,3-dione] | < 10 | > 85 | < 10 | 75 to 85 |
| O=C1CCC(N2Cc3cc(N4CC(CN5CCC(CN6CCN7c8cc(-c9ccccc9O)nnc8NC[C@H]7C6)CC5)C4)ccc3C2=O)C(=O)N1 (stereo partly drawn) [Example 230, 3-(5-(3-((4-(((S)-2-(2-hydroxyphenyl)-5,6,6a,7,9,10-hexahydro-8H-pyrazino[1′,2′:4,5]pyrazino[2,3-c]pyridazin-8-yl)methyl)piperidin-1-yl)methyl)azetidin-1-yl)-1-oxoisoindolin-2-yl)piperidine-2,6-dione] | < 10 | > 85 | < 10 | > 85 |
| CC(C1CCN(c2ccc3c(c2)C(=O)N(C2CCC(=O)NC2=O)C3=O)CC1)N1CCC(CCCN2CCN3c4cc(-c5ccccc5O)nnc4NC[C@H]3C2)CC1 (stereo partly drawn) [Example 248, 2-(2,6-dioxopiperidin-3-yl)-5-(4-(1-(4-(3-((S)-2-(2-hydroxyphenyl)-5,6,6a,7,9,10-hexahydro-8H-pyrazino[1′,2′:4,5]pyrazino[2,3-c]pyridazin-8-yl)propyl)piperidin-1-yl)ethyl)piperidin-1-yl)isoindoline-1,3-dione] | < 10 | > 85 | < 10 | > 85 |
| O=C1CCC(N2Cc3ccc(C4CCN(CCCN5CCC(CN6CCN7c8cc(-c9ccccc9O)nnc8NC[C@H]7C6)CC5)CC4)cc3C2=O)C(=O)N1 (stereo partly drawn) [Example 122, 3-(6-(1-(3-(4-(((S)-2-(2-hydroxyphenyl)-5,6,6a,7,9,10-hexahydro-8H-pyrazino[1′,2′:4,5]pyrazino[2,3-c]pyridazin-8-yl)methyl)piperidin-1-yl)propyl)piperidin-4-yl)-1-oxoisoindolin-2-yl)piperidine-2,6-dione] | 10 to 100 | > 85 | 10 to 100 | 75 to 85 |
| O=C1CCC(N2C(=O)c3ccc(N4CCC(CN5CC6COCC(C5)C6CN5CCN6c7cc(-c8ccccc8O)nnc7NC[C@H]6C5)CC4)cc3C2=O)C(=O)N1 (stereo partly drawn) [Example 132, 2-(2,6-dioxopiperidin-3-yl)-5-(4-((9-(((S)-2-(2-hydroxyphenyl)-5,6,6a,7,9,10-hexahydro-8H-pyrazino[1′,2′:4,5]pyrazino[2,3-c]pyridazin-8-yl)methyl)-3-oxa-7-azabicyclo[3.3.1]nonan-7-yl)methyl)piperidin-1-yl)isoindoline-1,3-dione] | < 10 | > 85 | < 10 | 75 to 85 |
| O=C1CCC(N2C(=O)c3ccc(N4CCC(CN5CCC(S(=O)(=O)N6CCN7c8cc(-c9ccccc9O)nnc8NC[C@H]7C6)CC5)CC4)cc3C2=O)C(=O)N1 (stereo partly drawn) [Example 137, 2-(2,6-dioxopiperidin-3-yl)-5-(4-((4-(((S)-2-(2-hydroxyphenyl)-5,6,6a,7,9,10-hexahydro-8H-pyrazino[1′,2′:4,5]pyrazino[2,3-c]pyridazin-8-yl)sulfonyl)piperidin-1-yl)methyl)piperidin-1-yl)isoindoline-1,3-dione] | < 10 | 50 to 75 | 10 to 100 | 50 to 75 |
| O=C1CCC(N2C(=O)c3ccc(N4CCN(CCN5CCO[C@H](CN6CCN7c8cc(-c9ccccc9O)nnc8NC[C@H]7C6)C5)CC4)cc3C2=O)C(=O)N1 (stereo partly drawn) [Example 159, 2-(2,6-dioxopiperidin-3-yl)-5-(4-(2-((R)-2-(((S)-2-(2-hydroxyphenyl)-5,6,6a,7,9,10-hexahydro-8H-pyrazino[1′,2′:4,5]pyrazino[2,3-c]pyridazin-8-yl)methyl)morpholino)ethyl)piperazin-1-yl)isoindoline-1,3-dione] | < 10 | > 85 | < 10 | 50 to 75 |
| CN(C(=O)N1CCN2c3cc(-c4ccccc4O)nnc3NC[C@H]2C1)C1CCN(CC2CCN(c3ccc4c(c3)C(=O)N(C3CCC(=O)NC3=O)C4=O)CC2)CC1 (stereo partly drawn) [Example 138, (6aS)-N-(1-((1-(2-(2,6-dioxopiperidin-3-yl)-1,3-dioxoisoindolin-5-yl)piperidin-4-yl)methyl)piperidin-4-yl)-2-(2-hydroxyphenyl)-N-methyl-5,6,6a,7,9,10-hexahydro-8H-pyrazino[1′,2′:4,5]pyrazino[2,3-c]pyridazine-8-carboxamide] | < 10 | > 85 | < 10 | > 85 |
